Measured values: ChEMBL document CHEMBL3885881, “DrugMatrix”

Species on record: Rattus norvegicus
Assay: DrugMatrix - Regimen: Daily Repeat
Format: toxicity, organism-based, Sprague-Dawley
Parameters: regimen Daily Repeat, gender Male, age 6-8 weeks
Settings: in vivo, po, 72 h, route oral GAVAGE, time 3 day, vehicle .5 % CMC; for ABSOLUTE BASOPHIL / ABSOLUTE EOSINOPHIL / ABSOLUTE LYMPHOCYTE / ABSOLUTE MONOCYTE / ABSOLUTE SEGMENTED NEUTROPHIL / BASOPHIL / EOSINOPHIL / ERYTHROCYTE COUNT / HEMATOCRIT / HEMOGLOBIN / LEUKOCYTE COUNT / LYMPHOCYTE / MEAN CORPUSCULAR HEMOGLOBIN / MEAN CORPUSCULAR HEMOGLOBIN CONCENTRATION / MEAN CORPUSCULAR VOLUME / MONOCYTE / NEUTROPHIL / NUCLEATED RED BLOOD CELLS / PLATELET COUNT: tissue Blood; for ALANINE AMINOTRANSFERASE / ALBUMIN / ALKALINE PHOSPHATASE / ASPARTATE AMINOTRANSFERASE / BLOOD UREA NITROGEN / CARBON DIOXIDE / CHLORIDE / CHOLESTEROL / CREATINE PHOSPHOKINASE / CREATININE / GLUCOSE / LACTATE DEHYDROGENASE / LIPASE / PHOSPHORUS / POTASSIUM / SODIUM / TOTAL BILIRUBIN / TOTAL PROTEIN / URIC ACID: tissue Plasma

C=C1CC[C@H](O)C/C1=C/C=C1\CCC[C@]2(C)[C@@H]([C@H](C)/C=C/[C@H](C)C(C)C)CC[C@@H]12 [ERGOCALCIFEROL]
ABSOLUTE BASOPHIL (0 mg/kg, dose level Control): 0 CELLS/uL
ABSOLUTE EOSINOPHIL (0 mg/kg, dose level Control): 8.83 CELLS/uL
ABSOLUTE LYMPHOCYTE (0 mg/kg, dose level Control): 7222.33 CELLS/uL
ABSOLUTE MONOCYTE (0 mg/kg, dose level Control): 0 CELLS/uL
ABSOLUTE SEGMENTED NEUTROPHIL (0 mg/kg, dose level Control): 752.17 CELLS/uL
BASOPHIL (0 mg/kg, dose level Control): 0%
EOSINOPHIL (0 mg/kg, dose level Control): 0.17%
ERYTHROCYTE COUNT (0 mg/kg, dose level Control): 5.22 x10E6/uL
HEMATOCRIT (0 mg/kg, dose level Control): 32.6%
HEMOGLOBIN (0 mg/kg, dose level Control): 12.43 G/DL
LEUKOCYTE COUNT (0 mg/kg, dose level Control): 7.98 x10E3/uL
LYMPHOCYTE (0 mg/kg, dose level Control): 91.17%
MEAN CORPUSCULAR HEMOGLOBIN (0 mg/kg, dose level Control): 23.87 pg
MEAN CORPUSCULAR HEMOGLOBIN CONCENTRATION (0 mg/kg, dose level Control): 38.18 G/DL
MEAN CORPUSCULAR VOLUME (0 mg/kg, dose level Control): 62.48 fL
MONOCYTE (0 mg/kg, dose level Control): 0%
NEUTROPHIL (0 mg/kg, dose level Control): 8.67%
NUCLEATED RED BLOOD CELLS (0 mg/kg, dose level Control): 0 /100WBC
PLATELET COUNT (0 mg/kg, dose level Control): 1082.33 x10E3/uL
ALANINE AMINOTRANSFERASE (0 mg/kg, dose level Control): 42.17 u/L
ALBUMIN (0 mg/kg, dose level Control): 4.33 G/DL
ALKALINE PHOSPHATASE (0 mg/kg, dose level Control): 451.17 u/L
ASPARTATE AMINOTRANSFERASE (0 mg/kg, dose level Control): 76.17 u/L
BLOOD UREA NITROGEN (0 mg/kg, dose level Control): 13.33 mg/dL
CARBON DIOXIDE (0 mg/kg, dose level Control): 31.67 mmol/L
CHLORIDE (0 mg/kg, dose level Control): 96.5 MEQ/L
CHOLESTEROL (0 mg/kg, dose level Control): 78 mg/dL
CREATINE PHOSPHOKINASE (0 mg/kg, dose level Control): 216.5 u/L
CREATININE (0 mg/kg, dose level Control): 0.22 mg/dL
GLUCOSE (0 mg/kg, dose level Control): 137 mg/dL
LACTATE DEHYDROGENASE (0 mg/kg, dose level Control): 138.5 u/L
LIPASE (0 mg/kg, dose level Control): 8.67 u/L
PHOSPHORUS (0 mg/kg, dose level Control): 12.68 mg/dL
POTASSIUM (0 mg/kg, dose level Control): 6.23 MEQ/L
SODIUM (0 mg/kg, dose level Control): 143.47 MEQ/L
TOTAL BILIRUBIN (0 mg/kg, dose level Control): 0.15 mg/dL
TOTAL PROTEIN (0 mg/kg, dose level Control): 6.33 G/DL
URIC ACID (0 mg/kg, dose level Control): 1.1 mg/dL
ABSOLUTE BASOPHIL (1 mg/kg, dose level Low): 0 CELLS/uL
ABSOLUTE EOSINOPHIL (1 mg/kg, dose level Low): 30.67 CELLS/uL
ABSOLUTE LYMPHOCYTE (1 mg/kg, dose level Low): 8277.33 CELLS/uL
ABSOLUTE MONOCYTE (1 mg/kg, dose level Low): 0 CELLS/uL
ABSOLUTE SEGMENTED NEUTROPHIL (1 mg/kg, dose level Low): 658.67 CELLS/uL
BASOPHIL (1 mg/kg, dose level Low): 0%
EOSINOPHIL (1 mg/kg, dose level Low): 0.33%
ERYTHROCYTE COUNT (1 mg/kg, dose level Low): 5.18 x10E6/uL
HEMATOCRIT (1 mg/kg, dose level Low): 32.07%
HEMOGLOBIN (1 mg/kg, dose level Low): 12.3 G/DL
LEUKOCYTE COUNT (1 mg/kg, dose level Low): 8.97 x10E3/uL
LYMPHOCYTE (1 mg/kg, dose level Low): 92.33%
MEAN CORPUSCULAR HEMOGLOBIN (1 mg/kg, dose level Low): 23.7 pg
MEAN CORPUSCULAR HEMOGLOBIN CONCENTRATION (1 mg/kg, dose level Low): 38.37 G/DL
MEAN CORPUSCULAR VOLUME (1 mg/kg, dose level Low): 61.9 fL
MONOCYTE (1 mg/kg, dose level Low): 0%
NEUTROPHIL (1 mg/kg, dose level Low): 7.33%
NUCLEATED RED BLOOD CELLS (1 mg/kg, dose level Low): 0.33 /100WBC
PLATELET COUNT (1 mg/kg, dose level Low): 1019.33 x10E3/uL
ALANINE AMINOTRANSFERASE (1 mg/kg, dose level Low): 47 u/L
ALBUMIN (1 mg/kg, dose level Low): 4.37 G/DL
ALKALINE PHOSPHATASE (1 mg/kg, dose level Low): 374.33 u/L
ASPARTATE AMINOTRANSFERASE (1 mg/kg, dose level Low): 77.33 u/L
BLOOD UREA NITROGEN (1 mg/kg, dose level Low): 13.33 mg/dL
CARBON DIOXIDE (1 mg/kg, dose level Low): 31 mmol/L
CHLORIDE (1 mg/kg, dose level Low): 97.33 MEQ/L
CHOLESTEROL (1 mg/kg, dose level Low): 71.67 mg/dL
CREATINE PHOSPHOKINASE (1 mg/kg, dose level Low): 205 u/L
CREATININE (1 mg/kg, dose level Low): 0.28 mg/dL
GLUCOSE (1 mg/kg, dose level Low): 142 mg/dL
LACTATE DEHYDROGENASE (1 mg/kg, dose level Low): 139.33 u/L
LIPASE (1 mg/kg, dose level Low): 8 u/L
PHOSPHORUS (1 mg/kg, dose level Low): 13.07 mg/dL
POTASSIUM (1 mg/kg, dose level Low): 6.56 MEQ/L
SODIUM (1 mg/kg, dose level Low): 144.27 MEQ/L
TOTAL BILIRUBIN (1 mg/kg, dose level Low): 0.17 mg/dL
TOTAL PROTEIN (1 mg/kg, dose level Low): 6.43 G/DL
URIC ACID (1 mg/kg, dose level Low): 1.17 mg/dL
ABSOLUTE BASOPHIL (15 mg/kg, dose level High): 0 CELLS/uL
ABSOLUTE EOSINOPHIL (15 mg/kg, dose level High): 0 CELLS/uL
ABSOLUTE LYMPHOCYTE (15 mg/kg, dose level High): 7628 CELLS/uL
ABSOLUTE MONOCYTE (15 mg/kg, dose level High): 40.67 CELLS/uL
ABSOLUTE SEGMENTED NEUTROPHIL (15 mg/kg, dose level High): 1198 CELLS/uL
BASOPHIL (15 mg/kg, dose level High): 0%
EOSINOPHIL (15 mg/kg, dose level High): 0%
ERYTHROCYTE COUNT (15 mg/kg, dose level High): 5.54 x10E6/uL
HEMATOCRIT (15 mg/kg, dose level High): 34.3%
HEMOGLOBIN (15 mg/kg, dose level High): 13.2 G/DL
LEUKOCYTE COUNT (15 mg/kg, dose level High): 8.87 x10E3/uL
LYMPHOCYTE (15 mg/kg, dose level High): 86.67%
MEAN CORPUSCULAR HEMOGLOBIN (15 mg/kg, dose level High): 23.83 pg
MEAN CORPUSCULAR HEMOGLOBIN CONCENTRATION (15 mg/kg, dose level High): 38.5 G/DL
MEAN CORPUSCULAR VOLUME (15 mg/kg, dose level High): 61.97 fL
MONOCYTE (15 mg/kg, dose level High): 0.33%
NEUTROPHIL (15 mg/kg, dose level High): 13%
NUCLEATED RED BLOOD CELLS (15 mg/kg, dose level High): 0.33 /100WBC
PLATELET COUNT (15 mg/kg, dose level High): 1196.67 x10E3/uL
ALANINE AMINOTRANSFERASE (15 mg/kg, dose level High): 55 u/L
ALBUMIN (15 mg/kg, dose level High): 4.43 G/DL
ALKALINE PHOSPHATASE (15 mg/kg, dose level High): 367.33 u/L
ASPARTATE AMINOTRANSFERASE (15 mg/kg, dose level High): 84 u/L
BLOOD UREA NITROGEN (15 mg/kg, dose level High): 14.33 mg/dL
CARBON DIOXIDE (15 mg/kg, dose level High): 31.67 mmol/L
CHLORIDE (15 mg/kg, dose level High): 93.33 MEQ/L
CHOLESTEROL (15 mg/kg, dose level High): 74.33 mg/dL
CREATINE PHOSPHOKINASE (15 mg/kg, dose level High): 211.67 u/L
CREATININE (15 mg/kg, dose level High): 0.24 mg/dL
GLUCOSE (15 mg/kg, dose level High): 139.33 mg/dL
LACTATE DEHYDROGENASE (15 mg/kg, dose level High): 153 u/L
LIPASE (15 mg/kg, dose level High): 8.33 u/L
PHOSPHORUS (15 mg/kg, dose level High): 13.23 mg/dL
POTASSIUM (15 mg/kg, dose level High): 6.15 MEQ/L
SODIUM (15 mg/kg, dose level High): 144.7 MEQ/L
TOTAL BILIRUBIN (15 mg/kg, dose level High): 0.1 mg/dL
TOTAL PROTEIN (15 mg/kg, dose level High): 6.63 G/DL
URIC ACID (15 mg/kg, dose level High): 1.43 mg/dL
